Results from PMC6753678, “Fueling Open Innovation for Malaria Transmission-Blocking Drugs: Hundreds of Molecules Targeting Early Parasite Mosquito Stages” (Frontiers in Microbiology, 2019).
Like-named read-outs stand apart in the source and are kept apart here.

Tests used:
[1] = tested on: P. berghei ookinete development; settings: for % inhibition, Replicate A / % inhibition, Replicate B: primary screen at 1 μM
[2] = tested on: HepG2 cells; assay: HepG2 cytotoxicity assay; settings: for Pb ODA (this manuscript) HepG2 cytoxicity: HepG2 cytotoxicity listed with the Pb ODA data set (this manuscript); for IC50: read-out: HepG2 cytotoxicity assay IC50, dose response confirmation
In short: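 Cells at 2,500 per well in MEM with 10% fetal bovine serum and 1% NEAA were exposed to test compounds for 48 h at 37°C, 5% CO2. Viability was read by fluorescence, with percent inhibition calculated against 50 μM doxorubicin (positive) and DMSO (negative) controls.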

[3] = tested on: 3D7-strain P. falciparum asexual parasites; assay: P. falciparum asexual growth inhibition assay (Pf GIA); assay type: cell-based, Plasmodium falciparum; settings: dose response confirmation; read-out: Pf asexual growth inhibition assays IC50
In short: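 0.25% parasitemia, 2% Hct, RPMI/HEPES/hypoxanthine/5% Albumax; compound dose response, 72 h, 37°C, 5% CO2, 5% O2, 90% N2. Freeze-thaw, then LDH assay, A650. % inhibition vs chloroquine (50 μM)/DMSO, mean of 3 independent runs.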

[4] = read-out: Pb Ookinete development assay IC50, dose response confirmation
[5] = read-out: Pb ODA (this manuscript) IC50, P. berghei ookinete development assay, this manuscript
[6] = read-out: Pb ODA IC50, this manuscript
[7] = unified HepG2 value across the three screens
[8] = HepG2 values of the three screens unified

| Structure (SMILES) | Is compound selective in assay? Pb ODA active? [1] | % inhibition, Replicate A [1] | % inhibition, Replicate B [1] | IC50 [1, 4] | Pb ODA (this manuscript) HepG2 cytoxicity [2] | IC50 [2] | IC50 [3] | IC50 [1, 5] | Is compound selective in assay? Pb ODA active? ([1]; 1: YES, 0: NO) | IC50 [1, 6] | Unified cytotox [2, 7] | HepG2 cytoxicity (Pb ODA, this manuscript) [2] | Unified cytotox [2, 8] |
| --- | --- | --- | --- | --- | --- | --- | --- | --- | --- | --- | --- | --- | --- |
| COc1ccc2c(=O)c(I)c(C)[nH]c2c1 [TCMDC-138141] | 0 (key: 1: YES; 0: NO) | 99.28% | 96.77% | 0.14 µM | 0.0017 µM | 0.0017 µM | < 0.0003 µM | – | – | – | – | – | – |
| Cc1[nH]c(C)c(-c2ccc(Oc3cccc(OC(F)(F)F)c3)cc2)c(=O)c1Cl [TCMDC-137389] | 1 (key: 1: YES; 0: NO) | 25.35% | 53.00% | 1.13 µM | 100.00 µM | 100 µM | 0.47 µM | 1.13 µM | – | – | – | – | – |
| CCCCCCc1c(C)nc2cc(OC)ccc2c1O [TCMDC-138010] | 1 (key: 1: YES; 0: NO) | 110.05% | 119.15% | 0.081 µM | 100.00 µM | 100 µM | 0.163 µM | 0.08 µM | – | – | – | – | – |
| CCOC(=O)C1=C(C)NC2=C(C(=O)C(C(=O)OC)C(C)C2)C1c1cc(Br)c(OCC)c(OC)c1 (stereo not drawn) [TCMDC-125139] | – | 3.38% | 50.55% | 9.06 µM | – | 100 µM | 1.42 µM | – | 1 (1: YES) | 9.06 µM | 100.00 µM | – | – |
| Cc1nc2nc(N)nc(N)c2c(C)c1Cc1ccc(N)cc1.Cl [TCMDC-137633] | 0 (key: 1: YES; 0: NO) | 2.48% | 52.30% | 6.21 µM | 0.08 µM | 0.08 µM | 0.287 µM | 6.21 µM | – | – | – | – | – |
| C#C[C@H]1O[C@@H](n2cnc3c(Nc4cc(Br)cc(C(F)(F)F)c4)ncnc32)[C@H](O)[C@@H]1O [TCMDC-135185] | – | 92.13% | 83.74% | 0.533 µM | – | 57.5 µM | 3.38 µM | – | 1 (1: YES) | 0.53 µM | 57.54 µM | – | – |
| O=c1cc(NCCCN(Cc2ccccc2)Cc2ccccc2)[nH]c2ccccc12 [TCMDC-139368] | – | 31.96% | 60.20% | 2.87 µM | – | 33.9 µM | 1.12 µM | – | 1 (1: YES) | 2.87 µM | 33.88 µM | – | – |
| O=c1c2ccccc2[nH]c2cc(Cl)ccc12 [TCMDC-123989] | – | 43.19% | 69.34% | 1.18 µM | – | 50.7 µM | 1.28 µM | – | 1 (1: YES) | 1.18 µM | 50.70 µM | – | – |
| Br.COc1ccc(CCCON2C(=N)N=C(N)NC2(C)C)cc1 [TCMDC-131693] | 0 (key: 1: YES; 0: NO) | 23.91% | 55.92% | 5.9 µM | 0.001 µM | 0.001 µM | < 0.0002 µM | 5.9 µM | – | – | – | – | – |
| COc1ccc(-c2ccc([N+](=O)[O-])cc2C(=O)NCC(C)Oc2ccc(C(F)(F)F)cc2)cc1 (stereo not drawn) [TCMDC-132304] | – | 29.22% | 50.52% | 4.01 µM | – | 100 µM | 0.52 µM | – | 1 (1: YES) | 4.01 µM | 100.00 µM | – | – |
| CN1CCN(c2ccc(Nc3ncc(Cl)c(Nc4cccnc4C(N)=O)n3)cc2)CC1.Cl [TCMDC-134164] | 1 (key: 1: YES; 0: NO) | 96.98% | 90.60% | 0.226 µM | 4.62 µM | 4.62 µM | 0.084 µM | 0.23 µM | – | – | – | – | – |
| Cc1nc(C)c(-c2ccc(Oc3cc(Cl)cc(Cl)c3)cc2)c(O)c1Br [TCMDC-137392] | – | 78.18% | 115.81% | 0.447 µM | – | 19.9 µM | 0.498 µM | – | 1 (1: YES) | 0.45 µM | – | 19.95 µM | 19.95 µM |
| CCCCCCCc1c(C)[nH]c2ccc(F)cc2c1=O [TCMDC-137269] | 1 (key: 1: YES; 0: NO) | 57.79% | 78.85% | 0.319 µM | 100.00 µM | 100 µM | 0.208 µM | 0.32 µM | – | – | – | – | – |
| COc1cc(OC)cc(-c2nn(-c3ccc([N+](=O)[O-])cc3C#N)c(=S)n2Cc2ccco2)c1 [TCMDC-134715] | – | 26.66% | 59.14% | 1.6 µM | – | 100 µM | 0.744 µM | – | 1 (1: YES) | 1.6 µM | 100.00 µM | – | – |
| CCCCCCCc1c(C)[nH]c2ccccc2c1=O [TCMDC-137425] | 1 (key: 1: YES; 0: NO) | 71.66% | 86.67% | 0.388 µM | 100.00 µM | 100 µM | 0.222 µM | 0.39 µM | – | – | – | – | – |
| Cc1[nH]c(C)c(-c2ccc(Oc3ccc(C(F)(F)F)cc3)cc2)c(=O)c1Br [TCMDC-137406] | – | 103.93% | 109.45% | 0.127 µM | – | 5.75 µM | 0.133 µM | – | 1 (1: YES) | 0.13 µM | – | 5.75 µM | 5.75 µM |
| COc1c(C)[nH]c(C)c(-c2ccc(Oc3cccc(C(F)(F)F)c3)cc2)c1=O [TCMDC-135253] | 0 (key: 1: YES; 0: NO) | 56.53% | 75.40% | 3.6 µM | 1.30 µM | 1.3 µM | 0.937 µM | 3.6 µM | – | – | – | – | – |
| Cl.c1ccc(Oc2ccc(Nc3nncc4ccccc34)cc2)cc1 [TCMDC-137229] | – | 75.48% | 62.89% | 0.692 µM | – | 100 µM | 0.544 µM | – | 1 (1: YES) | 0.69 µM | 100.00 µM | – | – |
| CC(=O)Oc1c(Cl)c(C)nc(C)c1-c1ccc(Oc2ccc(Cl)cc2)cc1 [TCMDC-137381] | 1 (key: 1: YES; 0: NO) | 96.93% | 129.91% | 0.098 µM | 2.63 µM | 2.63 µM | 0.034 µM | 0.1 µM | – | – | – | – | – |
